Source: patent US20240150365A1 (Hotspot Therapeutics, Inc., priority 2022, published 2024)

What was measured:
MALT1 = target: T1, MALT1 (Homo sapiens, UniProt Q9UDY8); assay: MALT-1 Fluorogenic Peptide Cleavage Assay (MALT1 inhibition assay); type: biochemical; settings: Avi-tagged FL MALT-1, Ac-LRSR-AMC peptide substrate, 30 min pre-incubation, 90 min reaction
T1 construct: Avi-tagged FL MALT-1 (Pharmaron, stored at −70° C.); Avi tag
T1 sequence (Q9UDY8 1-824): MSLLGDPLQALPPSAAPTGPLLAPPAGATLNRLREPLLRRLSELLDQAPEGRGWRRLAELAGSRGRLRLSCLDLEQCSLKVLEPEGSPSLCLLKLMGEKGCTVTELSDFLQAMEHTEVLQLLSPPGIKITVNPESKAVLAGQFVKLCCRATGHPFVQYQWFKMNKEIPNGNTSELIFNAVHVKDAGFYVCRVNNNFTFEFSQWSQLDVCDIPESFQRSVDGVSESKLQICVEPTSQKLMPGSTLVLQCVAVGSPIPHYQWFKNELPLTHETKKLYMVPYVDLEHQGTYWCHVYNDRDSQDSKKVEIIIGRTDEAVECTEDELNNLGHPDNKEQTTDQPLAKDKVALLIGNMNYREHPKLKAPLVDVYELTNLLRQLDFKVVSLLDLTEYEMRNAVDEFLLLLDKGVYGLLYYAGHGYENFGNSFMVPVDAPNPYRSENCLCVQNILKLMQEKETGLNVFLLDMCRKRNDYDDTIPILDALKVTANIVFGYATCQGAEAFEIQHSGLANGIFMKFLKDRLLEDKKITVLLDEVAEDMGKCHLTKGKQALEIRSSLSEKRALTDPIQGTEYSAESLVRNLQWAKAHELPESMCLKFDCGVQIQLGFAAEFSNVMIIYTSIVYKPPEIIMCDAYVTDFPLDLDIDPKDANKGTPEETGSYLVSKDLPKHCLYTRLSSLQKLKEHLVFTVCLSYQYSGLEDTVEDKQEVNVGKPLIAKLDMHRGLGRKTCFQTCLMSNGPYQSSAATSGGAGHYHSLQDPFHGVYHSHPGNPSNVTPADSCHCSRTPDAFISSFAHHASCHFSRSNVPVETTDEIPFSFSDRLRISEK
In short: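 IC50 from sigmoidal fits of % inhibition, with fluorescence (ex 342, em 441 nm) from AMC released from the quenched LRSR peptide after 90 min at room temperature. Full-length Avi-tagged MALT1 saw compound for 30 min first; final DMSO 2%.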

NF-kB = NF-kB reporter assay in Jurkat cells stimulated with aCD3/aCD28/PMA; type: cell-based; settings: Homo sapiens, Jurkat, Jurkat cells, 1 hr compound incubation, aCD3/aCD28/PMA stimulation 4 hr, One-Glo readout; read-out: NF-kB Reporter Assay IC50
In short: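 Stimulation used final aCD3 5 μg/mL, aCD28 5 μg/mL and PMA 0.03 μg/mL for 4 hr at 37° C, after 1 hr compound pretreatment of 25,000 serum-starved Jurkat cells per well. One-Glo luminescence gave IC50 values.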

| SMILES | IC50 (MALT1) [nM] | IC50 (NF-kB) [nM] |
| --- | --- | --- |
| Cn1ncc2cccc(NS(=O)(=O)c3ccc(-c4c[nH]nc4C(F)(F)F)nc3)c21 [Example I-85, N-(1-Methyl-1H-Indazol-7-yl)-6-(3-(Trifluoromethyl)-1H-Pyrazol-4-yl)Pyridine-3-Sulfonamide] | > 2500 | < 400 |
| Cn1ncc2cccc(NS(=O)(=O)c3ccc(-c4cnn(C(F)F)c4)nc3)c21 [Example I-86, 6-(1-(Difluoromethyl)-1H-Pyrazol-4-yl)-N-(1-Methyl-1H-Indazol-7-yl)Pyridine-3-Sulfonamide] | > 2500 | < 400 |
| Cc1nn(C)cc1-c1ccc(S(=O)(=O)Nc2cccc3cnn(C)c23)cn1 [Example I-87, 6-(1,3-Dimethyl-1H-Pyrazol-4-yl)-N-(1-Methyl-1H-Indazol-7-yl)Pyridine-3-Sulfonamide] | > 2500 | < 400 |
| Cc1c(-c2ccc(S(=O)(=O)Nc3cccc4cnn(C)c34)cn2)cnn1C [Example I-88, 6-(1,5-Dimethyl-1H-Pyrazol-4-yl)-N-(1-Methyl-1H-Indazol-7-yl)Pyridine-3-Sulfonamide] | > 2500 | < 400 |
| Cc1nn(C)c(C)c1-c1ccc(S(=O)(=O)Nc2cccc3cnn(C)c23)cn1 [Example I-89, N-(1-Methyl-1H-Indazol-7-yl)-6-(1,3,5-Trimethyl-1H-Pyrazol-4-yl)Pyridine-3-Sulfonamide] | > 2500 | < 400 |
| Cn1cncc1-c1ccc(S(=O)(=O)Nc2cccc3cnn(C)c23)cn1 [Example I-90, 6-(1-Methyl-1H-Imidazol-5-yl)-N-(1-Methyl-1H-Indazol-7-yl)Pyridine-3-Sulfonamide] | > 2500 | 400 to 1000 |
| Cc1cc(-c2ccc(S(=O)(=O)Nc3cccc4cnn(C)c34)cn2)on1 [Example I-98, N-(1-Methyl-1H-Indazol-7-yl)-6-(3-Methylisoxazol-5-yl)Pyridine-3-Sulfonamide] | > 2500 | < 400 |
| Cn1ncc2cccc(NS(=O)(=O)c3ccc(-n4cc(C(N)=O)cn4)nc3)c21 [Example I-105, 1-(5-(N-(1-Methyl-1H-Indazol-7-yl)Sulfamoyl)Pyridin-2-yl)-1H-Pyrazole-4-Carboxamide] | > 2500 | > 2500 |
| Cn1cc(-c2ccc(S(=O)(=O)Nc3cccc4cnn(C)c34)cn2)cn1 [Example I-107, N-(1-Methyl-1H-Indazol-7-yl)-6-(1-Methyl-1H-Pyrazol-4-yl)Pyridine-3-Sulfonamide] | > 2500 | < 400 |
| COc1cc(-c2ccc(S(=O)(=O)Nc3cccc4cnn(C)c34)cn2)ccn1 [Example I-108, 2′-Methoxy-N-(1-Methyl-1H-Indazol-7-yl)-[2,4′-Bipyridine]-5-Sulfonamide] | > 2500 | < 400 |
| Cn1ncc2cccc(NS(=O)(=O)c3ccc(-c4cccnc4)nc3)c21 [Example I-109, N-(1-Methyl-1H-Indazol-7-yl)-[2,3′-Bipyridine]-5-Sulfonamide] | > 2500 | < 400 |
| CN(C)c1ccc(-c2ccc(S(=O)(=O)Nc3cccc4cnn(C)c34)cn2)cn1 [Example I-110, 6′-(Dimethylamino)-N-(1-Methyl-1H-Indazol-7-yl)-[2,3′-Bipyridine]-5-Sulfonamide] | > 2500 | < 400 |
| COc1cccc(-c2ccc(S(=O)(=O)Nc3cccc4cnn(C)c34)cn2)n1 [Example I-111, 6′-Methoxy-N-(1-Methyl-1H-Indazol-7-yl)-[2,2′-Bipyridine]-5-Sulfonamide] | > 2500 | < 400 |
| Cn1cc(-c2ccc(S(=O)(=O)Nc3cccc4cnn(C)c34)cn2)ccc1=O [Example I-112, 1′-Methyl-N-(1-Methyl-1H-Indazol-7-yl)-6′-Oxo-1′,6′-Dihydro-[2,3′-Bipyridine]-5-Sulfonamide] | > 2500 | > 2500 |
| Cc1ncccc1-c1ccc(S(=O)(=O)Nc2cccc3cnn(C)c23)cn1 [Example I-113, 2′-Methyl-N-(1-Methylindazol-7-yl)-[2,3′-Bipyridine]-5-Sulfonamide] | > 2500 | 400 to 1000 |
| Cc1ncncc1-c1ccc(S(=O)(=O)Nc2cccc3cnn(C)c23)cn1 [Example I-115] | > 2500 | > 2500 |
| Cn1ncc2cccc(NS(=O)(=O)c3ccc(-c4ccncc4)nc3)c21 [Example I-116, N-(1-METHYL-1H-INDAZOL-7-YL)-[2,4′-BIPYRIDINE]-5-SULFONAMIDE] | > 2500 | 400 to 1000 |
| Cn1ccc(-c2ccc(S(=O)(=O)Nc3cccc4cnn(C)c34)cn2)cc1=O [Example I-117, 1′-Methyl-N-(1-Methyl-1H-Indazol-7-yl)-2′-Oxo-1′,2′-Dihydro-[2,4′-Bipyridine]-5-Sulfonamide] | > 2500 | > 2500 |
| Cn1ncc2cccc(NS(=O)(=O)c3ccc(-c4cccc(=O)[nH]4)nc3)c21 [Example I-118, N-(1-Methyl-1H-Indazol-7-yl)-6′-Oxo-1′,6′-Dihydro-[2,2′-Bipyridine]-5-Sulfonamide] | > 2500 | > 2500 |
| Cc1cc(-c2ccc(S(=O)(=O)Nc3cccc4cnn(C)c34)cn2)n(C)n1 [Example I-119, 6-(2,5-Dimethylpyrazol-3-yl)-N-(1-Methyl-Indazol-7-yl)Pyridine-3-Sulfonamide] | > 2500 | < 400 |

Now from value to compound:

| IC50 (MALT1) [nM] | IC50 (NF-kB) [nM] | SMILES |
| --- | --- | --- |
| > 2500 | > 2500 | Cn1ncc2cccc(NS(=O)(=O)c3ccc(-c4cc5cnccc5[nH]4)nc3)c21 [Example I-77, N-(1-Methyl-1H-Indazol-7-yl)-6-(1H-Pyrrolo[3,2-C]Pyridin-2-yl)Pyridine-3-Sulfonamide] |
| > 2500 | 1000 to 2500 | Cn1ncc2cccc(NS(=O)(=O)c3ccc(-c4cc[nH]c4)nc3)c21 [Example I-79, N-(1-Methyl-1H-Indazol-7-yl)-6-(1H-Pyrrol-3-yl)Pyridine-3-Sulfonamide] |
| > 2500 | 1000 to 2500 | Cn1ncc2cccc(NS(=O)(=O)c3ccc(-c4ccc[nH]4)nc3)c21 [Example I-80, N-(1-Methyl-1H-Indazol-7-yl)-6-(1H-Pyrrol-2-yl)Pyridine-3-Sulfonamide] |
| > 2500 | 400 to 1000 | Cn1ncc2cccc(NS(=O)(=O)c3ccc(-c4ccn[nH]4)nc3)c21 [Example I-81, N-(1-Methyl-1H-Indazol-7-yl)-6-(1H-Pyrazol-5-yl)Pyridine-3-Sulfonamide] |
| > 2500 | 400 to 1000 | Cn1nccc1-c1ccc(S(=O)(=O)Nc2cccc3cnn(C)c23)cn1 [Example I-82, N-(1-Methyl-1H-Indazol-7-yl)-6-(1-Methyl-1H-Pyrazol-5-yl)Pyridine-3-Sulfonamide] |
| > 2500 | < 400 | Cc1cc(-c2ccc(S(=O)(=O)Nc3cccc4cnn(C)c34)cn2)[nH]n1 [Example I-83, N-(1-Methyl-1H-Indazol-7-yl)-6-(3-Methyl-1H-Pyrazol-5-yl)Pyridine-3-Sulfonamide] |
| 400 to 1000 | < 400 | Cn1ncc2cccc(NS(=O)(=O)c3ccc(-c4cc(C(F)(F)F)n[nH]4)nc3)c21 [Example I-84, N-(1-Methyl-1H-Indazol-7-yl)-6-(3-(Trifluoromethyl)-1H-Pyrazol-5-yl)Pyridine-3-Sulfonamide] |
| < 400 | < 400 | Cn1ncc2cccc(NS(=O)(=O)c3ccc(-c4cncs4)nc3)c21 [Example I-101, N-(1-Methyl-1H-Indazol-7-yl)-6-(Thiazol-5-yl)Pyridine-3-Sulfonamide] |
| 400 to 1000 | < 400 | Cc1nc(C)c(-c2ccc(S(=O)(=O)Nc3cccc4cnn(C)c34)cn2)s1 [Example I-103, 6-(2,4-Dimethylthiazol-5-yl)-N-(1-Methyl-1H-Indazol-7-yl)Pyridine-3-Sulfonamide] |
| < 400 | < 400 | COc1ccc2cnn(C)c2c1N(C)S(=O)(=O)c1ccc(-c2cc(C(F)(F)F)nn2C)nc1 [Example I-104, N-(6-Methoxy-1-Methyl-1H-Indazol-7-yl)-N-Methyl-6-(1-Methyl-3-(Trifluoromethyl)-1H-Pyrazol-5-yl)Pyridine-3-Sulfonamide] |
| < 400 | < 400 | COc1ccc2[nH]nc(C)c2c1NS(=O)(=O)c1ccc(-n2cc(C(F)(F)F)cn2)nc1 [Example I-106, N-(5-Methoxy-3-Methyl-1H-Indazol-4-yl)-6-(4-(Trifluoromethyl)-1H-Pyrazol-1-yl)Pyridine-3-Sulfonamide] |
